Our source for the inhibition values is patent US7906512B2, “3,6-substituted imidazol[1,2-b]pyridazine analogs for treating allergic and inflammatory diseases” (Alcon, Inc., priority 2005, dated 2011).

One assay concerns the target Syk (h) (Homo sapiens, UniProt P43405). Briefly: Syk kinase inhibition assay (33P-ATP filter binding). The assay is classed as biochemical.
Conditions: not given
How it is done: In a final reaction volume of 25 μl, Syk (h) (5-10 mU) is incubated with 50 mM Tris pH 7.5, […], 0.1 mM Na3VO4, 0.1% β-mercaptoethanol, 0.1 mg/mL poly (Glu, Tyr) 4:1, 10 μM test agent, 10 mM MgAcetate and [γ-^33P-ATP] (specific activity approximately 500 cpm/pmol, concentration as required). The reaction is initiated by the addition of the MgATP mix. After incubation for 40 minutes at room temperature, the reaction is stopped by the addition of 5 μl of a 3% phosphoric acid solution. 10 μl of the reaction is then spotted onto a Filtermat A and washed three times for 5 minutes in 75 mM phosphoric acid and once in methanol prior to drying and scintillation counting. Percent inhibition was calculated using the following formula: % Control=((sample-mean no enzyme)/(mean plus enzyme−mean no enzyme))×100.
In turn, `CCCC/C=C/c1cnc2ccc(NCCN(C)C)nn12` displayed an inhibition at 10 µM of 27%.

The same assay, now with this note: 10 μM test agent; 40 minutes at room temperature; substrate poly (Glu, Tyr) 4:1; read-out: % inhibition.
As for `CCCNc1ccc2ncc(-c3cc(C)cs3)n2n1`, the inhibition at 10 µM amounted to 38%.

Consider `c1csc(-c2cnc3ccc(NCC4CC4)nn23)c1`, for which the inhibition at 10 µM turned out to be 26%.

For `CCCNc1ccc2ncc(-c3ccsc3)n2n1`, the inhibition at 10 µM is 23%.

With `COc1ccc(-c2cnc3ccc(NCc4ccccn4)nn23)cc1`, the inhibition at 10 µM came out at 77%.

On to `COc1ccccc1-c1cnc2ccc(NCc3ccccn3)nn12`, for which the inhibition at 10 µM is 81%.

In the case of `COc1cc(CNc2ccc3ncc(-c4ccc(Oc5ccccc5)cc4)n3n2)cc(OC)c1OC`, the inhibition at 10 µM turned out to be 24%.

On to `CN1CCN(c2ccc(CNc3ccc4ncc(-c5cccc(OC(F)(F)F)c5)n4n3)cc2)CC1`, for which the inhibition at 10 µM stood at 33%.

Turning to `c1n[nH]cc1-c1cnc2ccc(NC3CCOCC3)nn12`, the inhibition at 10 µM is 42%.

Usually inhibition stands for the percentage by which the read-out fell short of the control.
